In PubChem BioAssay AID328 (DTP/NCI, 2004):
Where “and” joins values, the source holds several entries; their conditions need not be identical. Equal entries are not always repeated. Toxic doses and inconclusive results are not listed.

System: BDF1 mice, P388 leukemia ip, median survival T/C
Experiment: NCI In Vivo Anticancer Drug Screen. Data for tumor model P388 Leukemia (intraperitoneal) in B6D2F1 (BDF1) mice
Conditions: endpoint: median survival time, higher = longer survival
Method: The antitumor activity of compounds was measured in mice bearing transplantable tumors. Survival or tumor size were measured and the results are expressed as the measurement made in the treated group (T) divided by the measurement made in the vehicle treated control group (C). The tumor model used in this assay is P388 Leukemia (intraperitoneal) in B6D2F1 (BDF1) mice

[1] = dose: 50.0 mg/kg/injection, schedule: Q01DX009 (ip), vehicle: Klucel (hydroxypropylcellulose) (HPC)
[2] = dose: 100.0 mg/kg/injection, schedule: Q01DX009 (ip), vehicle: Klucel (hydroxypropylcellulose) (HPC)
[3] = dose: 100.0 mg/kg/injection, schedule: Q04DX003 (ip), vehicle: Klucel (hydroxypropylcellulose) (HPC)
[4] = dose: 200.0 mg/kg/injection, schedule: Q04DX003 (ip), vehicle: Klucel (hydroxypropylcellulose) (HPC)
[5] = dose: 50.0 mg/kg/injection, schedule: Q01DX009 (ip), vehicle: saline with Tween-80

With `FC(F)(F)c1nc2nc(Cl)c(Cl)nc2n1CCCN1CCOCC1` the T/C (dose: 100.0 mg/kg/injection, schedule: Q04DX003 (ip), vehicle: saline with Tween-80) was 105 % of control, the T/C (dose: 200.0 mg/kg/injection, schedule: Q04DX003 (ip), vehicle: saline with Tween-80) was 115 % of control and the T/C (dose: 400.0 mg/kg/injection, schedule: Q04DX003 (ip), vehicle: saline with Tween-80) was 110 % of control.

For `CCC(c1ccc(OC)cc1)C(NCC(=O)N/N=C/c1ccccc1[N+](=O)[O-])c1ccc(OC)cc1` (centres undefined), the T/C (dose: 12.5 mg/kg/injection, schedule: Q01DX001 (ip), vehicle: saline with Tween-80) was 91 % of control.

In the case of `COc1ccc(CNc2ncccn2)cc1`, the T/C (dose: 25.0 mg/kg/injection, schedule: Q01DX009 (ip), vehicle: Klucel (hydroxypropylcellulose) (HPC)) is reported as 95 % of control, the T/C [1] is reported as 100 % of control and the T/C [2] is reported as 104 % of control. The T/C [3] was 88 % of control, the T/C (dose: 200.0 mg/kg/injection, schedule: Q01DX009 (ip), vehicle: Klucel (hydroxypropylcellulose) (HPC)) was 89 % of control and the T/C [4] was 96 % of control.

In the case of `CC(=O)OCCCC/C(=C/c1cc2ccccc2c2ccccc12)[N+](=O)[O-]`, the T/C [1] is reported as 100 % of control and the T/C [2] is reported as 100 % of control.

In the case of `Cc1nn(CCO)c(-c2ccccc2)c1-n1on1-c1c(C)nn(CCO)c1-c1ccccc1`, the T/C [5] is reported as 101 % of control.

For `C=CCNC(=S)Nc1ccc(C)cc1`, the T/C (dose: 50.0 mg/kg/injection, schedule: Q04DX003 (ip), vehicle: Klucel (hydroxypropylcellulose) (HPC)) was 112 % of control, the T/C [3] was 104 % of control and the T/C [4] was 91 % of control.

With `S=c1c(S)c(S)c1=S` the T/C (dose: 100.0 mg/kg/injection, schedule: Q04DX002 (ip), vehicle: saline) was 100 % of control, the T/C (dose: 200.0 mg/kg/injection, schedule: Q04DX002 (ip), vehicle: saline) was 100 % of control and the T/C (dose: 400.0 mg/kg/injection, schedule: Q04DX002 (ip), vehicle: saline) was 100 % of control.

With `COc1ccc(C=NCCc2ccc(OC)c(OC)c2)cc1OC` the T/C (dose: 100.0 mg/kg/injection, schedule: Q01DX009 (ip), vehicle: saline) was 97 % of control, the T/C (dose: 200.0 mg/kg/injection, schedule: Q01DX009 (ip), vehicle: saline) was 97 % of control and the T/C (dose: 400.0 mg/kg/injection, schedule: Q01DX009 (ip), vehicle: saline) was 105 % of control.

In the case of `CN(C(N)=O)c1c(O)nc(N)[nH]c1=O`, the T/C (dose: 12.5 mg/kg/injection, schedule: Q01DX009 (ip), vehicle: water) is reported as 106 % of control, the T/C (dose: 25.0 mg/kg/injection, schedule: Q04DX003 (ip), vehicle: water) is reported as 106 % of control and the T/C (dose: 50.0 mg/kg/injection, schedule: Q01DX009 (ip), vehicle: water) is reported as 88 % of control. For the same compound, the T/C (dose: 50.0 mg/kg/injection, schedule: Q04DX003 (ip), vehicle: water) was 100 % of control, the T/C (dose: 100.0 mg/kg/injection, schedule: Q01DX009 (ip), vehicle: water) was 91 % of control and the T/C (dose: 100.0 mg/kg/injection, schedule: Q04DX003 (ip), vehicle: water) was 106 % of control. For the same compound, the T/C (dose: 200.0 mg/kg/injection, schedule: Q04DX003 (ip), vehicle: water) was 106 % of control.

For `O=P(N1CCCCCC1)(N1CC1)N1CC1`, the T/C (dose: 5.0 mg/kg/injection, schedule: Q01DX009 (ip), vehicle: saline) was 168 % of control, the T/C (dose: 6.25 mg/kg/injection, schedule: Q04DX003 (ip), vehicle: saline) was 95 % of control and the T/C (dose: 7.0 mg/kg/injection, schedule: Q04DX003 (ip), vehicle: saline) was 112 % of control. The T/C (dose: 8.0 mg/kg/injection, schedule: Q01DX009 (ip), vehicle: saline) was 157 % of control and 222 % of control, the T/C (dose: 11.0 mg/kg/injection, schedule: Q04DX003 (ip), vehicle: saline) was 150 % of control and the T/C (dose: 16.5 mg/kg/injection, schedule: Q04DX003 (ip), vehicle: saline) was 180 % of control. The T/C (dose: 17.0 mg/kg/injection, schedule: Q04DX003 (ip), vehicle: saline) was 166 % of control and 181 % of control, the T/C (dose: 25.0 mg/kg/injection, schedule: Q04DX003 (ip), vehicle: saline) was 218 % of control [middle of 4 runs] and the T/C (dose: 50.0 mg/kg/injection, schedule: Q04DX003 (ip), vehicle: saline) was 162 % of control.

`O=S(=O)(O)O.[W]` was tested, and the T/C (dose: 0.75 mg/kg/injection, schedule: Q01DX009 (ip), vehicle: saline) was 96 % of control and the T/C (dose: 3.0 mg/kg/injection, schedule: Q01DX009 (ip), vehicle: saline) was 90 % of control.

For `[O-][n+]1c(CCl)nc2cccc3c2c1-c1ccccc1-3`, the T/C (dose: 12.5 mg/kg/injection, schedule: Q01DX009 (ip), vehicle: saline with Tween-80) was 106 % of control, the T/C (dose: 25.0 mg/kg/injection, schedule: Q01DX009 (ip), vehicle: saline with Tween-80) was 111 % of control and 121 % of control (2×) and the T/C [5] was 121 % of control. For the same compound, the T/C (dose: 100.0 mg/kg/injection, schedule: Q01DX009 (ip), vehicle: saline with Tween-80) was 93 % of control.
